# Assay results published in patent US20140296154A1, “METHOD OF PREVENTING DEVELOPMENT OF PSORIATIC LESIONS” (YALE UNIVERSITY, priority 2011, published 2014).
# Square brackets hold non-standard residues; d marks the D form. Ends that are not written are not given here.
# How the values were obtained:
# [1] = test system: PSX mice (K14-VEGF transgenic psoriasis model); experiment: Ear thickness / psoriatic lesion development in PSX (homozygous K14-VEGF transgenic) mice; format: in vivo, mouse; conditions: intraperitoneal 50 micrograms twice weekly; for mean ear thickness / psoriatic skin lesions: older PSX mice with fully developed psoriatic lesions, 8 weeks, vs untreated control
# From the text: This K14-VEGF mouse was backcrossed to homozygosity for the transgene(s), generating a mouse model that develops psoriasiform lesions on the ears spontaneously and after trauma. These are referred to as PSX mice. […] FIGS. 3A-D illustrate the PSX transgenic mouse model used in screening psoriasis treatments in accordance with the present invention. […] FIGS. 3C and 3D show pathology of the mouse model.
# The NF-κB inhibitor used for the treatments in this example was the fusion protein drqikiwfqnrrmkwkkTALDWSWLQTE (SEQ ID NO: 122), where lower case letters indicate D-amino acid residues and upper case letters indicate L-amino acid residues. This inhibitor includes a translocation domain of Antennapedia and an Nemo Binding Domain (NBD) peptide.
# The peptide was formulated and administered as an intraperitoneal injection of 50 micrograms to either PSX mice after they had fully developed psoriatic skin lesions (FIG. 7) or prior to the development of psoriatic plaques when the ears were still uninvolved (FIG. 8). Assessment of the development of psoriatic lesions was measured by the thickness of ear tissue.
# [2] = test system: A20; experiment: Western blot of A20 in skin of WT and PSX mice with and without TPA; format: in vivo, mouse; conditions: topical TPA; wild-type and old (24-week) PSX mice compared to young (4-week) PSX mice
# [3] = Topical delivery of FITC-labeled NBD peptide into skin; format: in vivo
# From the text: To assess the ability to deliver the NBD peptide of SEQ ID NO: 122 topically, the peptide was conjugated to the fluorophore FITC, and the labeled peptide prepared in two different formulations. The first formulation consisted of the labeled peptide dissolved in vaseline ointment, and the second formulation consisted of the labeled peptide dissolved in DMSO.
compound,measurement,setting,value
drqikiwfqnrrmkwkkTALDWSWLQTE ([dD][dR][dQ][dI][dK][dI][dW][dF][dQ][dN][dR][dR][dM][dK][dW][dK][dK]TALDWSWLQTE) [SEQ ID NO: 122],mean ear thickness / psoriatic skin lesions,[1]; listed as NF-κB inhibitor,no change
same,mean ear thickness / psoriatic skin lesions,[1]; listed as peptide,no effect
same,thickening of the ear and development of phenotypic lesions of psoriasis,"[1]; young PSX mice treated prior to development of psoriatic plaques, vs vehicle (DMSO)",prevented the thickening of the ear
"CCCCCCCCCCCCCC(=O)O[C@@H]1[C@@H](C)[C@@]2(O)[C@@H](C=C(CO)C[C@]3(O)C(=O)C(C)=C[C@@H]23)[C@@H]2C(C)(C)[C@]12OC(C)=O [TPA, 12-O-tetradecanoyl phorbol-13-acetate]",A20 protein induction,[2],robust induction
"FITC-conjugated NBD peptide of SEQ ID NO: 122: NBD peptide of SEQ ID NO: 122 conjugated to the fluorophore FITC, in vaseline ointment or DMSO ([dD][dR][dQ][dI][dK][dI][dW][dF][dQ][dN][dR][dR][dM][dK][dW][dK][dK]TALDWSWLQTE; also: FITC conjugate, site not given here)",peptide localisation in skin after topical administration,[3]; peptide in DMSO,uptake is prevalent among the cells in both the epidermis and dermis
same,peptide localisation in skin after topical administration,[3]; peptide in vaseline ointment,limited to the stratum corneum
